Assay results reported in patent US9730940B2, “Purine inhibitors of human phosphatidylinositol 3-kinase delta” (priority 2012, dated 2017).

Experiments:
PI3K-delta = PI3K-delta (Homo sapiens (Human), UniProt O00329); assay: biochemical; conditions: PI3Kdelta IC50, HTRF biochemical assay; compound form screened given
Excerpt: HTRF PI3K Biochemical Assay to Measure Intrinsic Potency of Compound Inhibitors
The PI3-Kinase biochemical assays were developed to measure the intrinsic potency and compound dependent inhibition of the alpha, beta, delta, and gamma PI3K isoform enzymes. This assay was developed and further optimized from a kit produced by Upstate (Millipore catalog #33-047) and has been configured for HTS and SAR screening. Briefly, this procedure exploits the exquisite specificity and high affinity binding of enzyme reaction substrate phosphatidyl(3,4,5)triphosphate (PIP3) to the GRP1 pleckstrin homology (PH) domain to generate the signal. In the absence of PIP3, an HTRF (Homogeneous Time-Resolved Fluorescence energy transfer) complex is formed consisting of europium (Eu)-labeled anti-GST, GST tagged GRP1-PH domain, biotin-PIP3 and streptavidin conjugated APC. The native PIP3 produced by PI3-Kinase activity disrupts in a competitive manner the biotin-PIP3 from the PH domain, resulting in the loss of energy transfer (HTRF complex) and a decrease in the signal. The format of this assay is the same for all 4 isoforms of PI3K; the differences lie in the concentration of enzyme used to achieve robust assay window. The alpha, beta, and delta assays are run at 0.5, 1, and 0.3 nM enzymes and the gamma assay is run at 5 nM enzyme. The ATP concentration is 100 uM in the alpha, beta, and delta assays and 50 uM ATP in the gamma assay. All reactions are run at 5 uM PIP2.
Compounds are serially diluted (3-fold in 100% DMSO) across a 384-well polypropylene source plated from column 3 to column 12 and column 13 to column 22, to yield 10 concentration dose response for each test compound. Columns 1, 2, 23 and 24 contain either only DMSO or pharmacological known control inhibitor.
The PI3-Kinase biochemical assay was optimized using the HTRF kit provided by Upstate (Millipore). The assay kit contains six reagents: 1) 4× Reaction Buffer; 2) native PIP2 (substrate); 3) Stop (EDTA); 4) Detection Mix A (Streptavidin-APC); 5) Detection Mix B (Eu-labeled Anti-GST plus GST-tagged PH-domain); 6) Detection Mix C.
PI3Kinase Reaction Buffer is prepared by dilution the stock 1:4 with de-ionized water. […] Enzyme addition and compound pre-incubation are initiated by the addition of 1.25 ul of PI3K (at twice its final concentration) in the 1× reaction buffer to all wells using a BioRaptor. Plates are incubated at room temperature for 15 minutes. Reactions are initiated by addition of 1.25 ul of 2× substrate solution (PIP2 and ATP in 1× reaction buffer) using BioRaptor. Plates are incubated in humidified chamber at room temperature for one hour. Reactions are quenched by addition of 0.625 uL of stop solution to all wells using the BioRaptor. The quenched reactions are then processed to detect product formation by adding 0.625 uL of Detection Solution to all wells using the BioRaptor (Detection mix C, Detection Mix A, and Detection Mix B combined together in an 18:1:1 ratio prepared 2 hours prior to use).
The loss of the HTRF signal is due to the displacement of biotinylated-PIP3 from the PH domain by the PI3K-dependent conversion of PIP2 to PIP3. […] All data were calculated using the ratio of acceptor (APC) to donor (Europium) fluorescence in each well of the assay plate. […] An IC50 was then calculated fitting the % inhibition data to the equation: % inhibition=min+(Max−min)/1+([inhibitor]/IC50)^n) where min is the % inhibition […], max is the signal in DMSO control, and n is the Hill slope.

PI3K-alpha = PI3K-alpha (Homo sapiens (Human), UniProt P42336); assay: HTRF PI3K biochemical assay, alpha isoform; conditions: ratio PI3K-alpha IC50 value/PI3K-delta IC50 value
Sequence of PI3K-alpha (P42336 whole entry, looked up, canonical isoform): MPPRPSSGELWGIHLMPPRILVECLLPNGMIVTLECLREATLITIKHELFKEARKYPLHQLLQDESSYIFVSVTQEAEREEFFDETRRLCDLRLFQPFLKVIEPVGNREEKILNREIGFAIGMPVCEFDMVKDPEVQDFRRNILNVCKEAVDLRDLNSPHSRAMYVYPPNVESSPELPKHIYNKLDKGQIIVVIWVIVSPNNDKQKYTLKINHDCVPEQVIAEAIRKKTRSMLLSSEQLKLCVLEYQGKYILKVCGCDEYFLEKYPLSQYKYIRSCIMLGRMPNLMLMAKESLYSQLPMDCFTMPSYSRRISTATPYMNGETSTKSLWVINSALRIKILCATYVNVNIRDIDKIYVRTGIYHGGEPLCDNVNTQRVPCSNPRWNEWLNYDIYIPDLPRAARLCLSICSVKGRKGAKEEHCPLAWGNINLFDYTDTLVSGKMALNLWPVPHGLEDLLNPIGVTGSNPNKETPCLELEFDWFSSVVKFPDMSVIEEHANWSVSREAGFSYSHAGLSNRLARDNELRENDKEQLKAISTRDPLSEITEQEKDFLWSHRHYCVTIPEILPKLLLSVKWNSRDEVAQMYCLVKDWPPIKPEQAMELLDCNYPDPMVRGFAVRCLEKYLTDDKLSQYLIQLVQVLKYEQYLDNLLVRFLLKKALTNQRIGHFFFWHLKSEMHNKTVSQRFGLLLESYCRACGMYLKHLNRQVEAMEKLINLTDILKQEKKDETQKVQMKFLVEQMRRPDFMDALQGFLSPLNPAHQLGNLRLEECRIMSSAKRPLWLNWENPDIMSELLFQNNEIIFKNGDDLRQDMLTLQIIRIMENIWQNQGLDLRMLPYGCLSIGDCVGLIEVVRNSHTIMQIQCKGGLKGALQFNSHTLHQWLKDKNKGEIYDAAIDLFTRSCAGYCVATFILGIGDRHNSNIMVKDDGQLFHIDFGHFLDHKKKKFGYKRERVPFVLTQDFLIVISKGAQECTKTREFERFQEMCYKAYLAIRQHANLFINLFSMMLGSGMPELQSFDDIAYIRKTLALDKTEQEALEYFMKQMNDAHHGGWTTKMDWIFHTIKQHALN
Sequence of PI3K-alpha (P27986 whole entry partner, looked up, canonical isoform): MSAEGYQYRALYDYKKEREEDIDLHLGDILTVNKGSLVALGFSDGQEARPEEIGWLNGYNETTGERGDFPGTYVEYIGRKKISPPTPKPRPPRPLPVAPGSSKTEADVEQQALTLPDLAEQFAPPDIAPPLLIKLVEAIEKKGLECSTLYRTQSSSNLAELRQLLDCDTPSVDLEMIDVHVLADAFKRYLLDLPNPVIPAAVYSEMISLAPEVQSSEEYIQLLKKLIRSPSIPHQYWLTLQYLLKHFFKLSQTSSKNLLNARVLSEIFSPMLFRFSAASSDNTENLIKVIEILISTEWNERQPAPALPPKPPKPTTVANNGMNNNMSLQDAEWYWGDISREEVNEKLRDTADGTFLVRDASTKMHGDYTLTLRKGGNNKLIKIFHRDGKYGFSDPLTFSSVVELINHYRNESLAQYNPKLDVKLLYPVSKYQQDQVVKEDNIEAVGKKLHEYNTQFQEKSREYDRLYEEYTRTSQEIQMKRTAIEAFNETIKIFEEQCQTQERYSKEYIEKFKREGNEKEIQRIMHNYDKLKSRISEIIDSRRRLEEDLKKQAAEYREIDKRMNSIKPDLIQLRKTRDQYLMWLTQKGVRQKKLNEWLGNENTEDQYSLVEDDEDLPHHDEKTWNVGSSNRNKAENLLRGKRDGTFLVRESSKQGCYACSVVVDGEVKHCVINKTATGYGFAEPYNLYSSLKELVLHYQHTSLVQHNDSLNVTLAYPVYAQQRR

Sequence of PI3K-delta (O00329 whole entry, looked up): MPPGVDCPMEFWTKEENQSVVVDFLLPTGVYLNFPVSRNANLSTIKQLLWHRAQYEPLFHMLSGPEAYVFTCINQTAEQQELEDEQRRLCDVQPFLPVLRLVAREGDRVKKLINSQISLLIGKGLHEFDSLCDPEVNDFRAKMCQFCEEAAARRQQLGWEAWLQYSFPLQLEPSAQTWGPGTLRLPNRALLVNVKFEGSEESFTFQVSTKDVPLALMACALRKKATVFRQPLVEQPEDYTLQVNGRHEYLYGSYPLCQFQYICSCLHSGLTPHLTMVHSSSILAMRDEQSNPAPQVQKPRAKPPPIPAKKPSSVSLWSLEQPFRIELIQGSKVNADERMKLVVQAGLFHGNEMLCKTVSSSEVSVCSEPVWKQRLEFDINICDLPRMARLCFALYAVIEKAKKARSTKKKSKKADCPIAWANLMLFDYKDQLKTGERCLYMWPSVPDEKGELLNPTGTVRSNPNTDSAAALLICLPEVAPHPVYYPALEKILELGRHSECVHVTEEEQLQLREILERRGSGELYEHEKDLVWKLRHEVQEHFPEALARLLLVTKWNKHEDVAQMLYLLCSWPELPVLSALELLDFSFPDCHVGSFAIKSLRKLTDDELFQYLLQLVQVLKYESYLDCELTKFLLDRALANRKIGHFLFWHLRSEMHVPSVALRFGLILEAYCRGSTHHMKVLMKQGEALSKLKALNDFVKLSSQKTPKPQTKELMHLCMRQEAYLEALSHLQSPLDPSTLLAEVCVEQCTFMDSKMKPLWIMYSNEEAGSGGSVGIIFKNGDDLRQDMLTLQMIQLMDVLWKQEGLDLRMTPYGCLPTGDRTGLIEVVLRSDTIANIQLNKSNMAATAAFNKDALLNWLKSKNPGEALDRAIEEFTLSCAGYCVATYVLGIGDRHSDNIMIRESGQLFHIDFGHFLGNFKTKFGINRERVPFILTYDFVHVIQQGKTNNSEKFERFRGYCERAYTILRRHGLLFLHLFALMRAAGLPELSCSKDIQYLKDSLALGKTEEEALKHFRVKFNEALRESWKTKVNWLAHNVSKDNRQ
Sequence of PI3K-delta (P27986 whole entry partner, looked up): as the sequence (P27986 whole entry partner, looked up, canonical isoform) above

| Structure (SMILES) | IC50 (PI3K-delta) [nM] | Relative Selectivity versus PI3Kalpha (PI3K-alpha) |
| --- | --- | --- |
| CCn1c(-c2cnc(C)nc2)nc2c(O[C@@H]3CN(C(=O)C4CC4)CC3(C)C)ncnc21 (racemic) [Compound 3-62, racemic-6-{[1-(cyclopropylcarbonyl)-4,4-dimethylpyrrolidin-3-yl]oxy}-9-ethyl-8-(2-methylpyrimidin-5-yl)-9H-purine] | 2.3 | >10 |
| CCn1c(-c2cnc(C)nc2)nc2c(O[C@H]3CCN(C(=O)C4CC45CCCC5)C3)ncnc21 (single isomer, unassigned) [Compound 2-122, 9-ethyl-8-(2-methylpyrimidin-5-yl)-6-{[(3S)-1-((R or S)-spiro[2.4]hept-1-ylcarbonyl)pyrrolidin-3-yl]oxy}-9H-purine] | 16 | >10 |
| CCn1c(-c2cnc(C)nc2)nc2c(O[C@H]3CCN(C(=O)C4CC45CCCC5)C3)ncnc21 (single isomer, unassigned) [Compound 2-123, 9-ethyl-8-(2-methylpyrimidin-5-yl)-6-{[(3S)-1-((R or S)-spiro[2.4]hept-1-ylcarbonyl)pyrrolidin-3-yl]oxy}-9H-purine] | < 1 | >10 |
| CCn1c(-c2cnc(C)nc2)nc2c(O[C@H]3CCN(C(=O)N4CCC4C)C3)ncnc21 (single isomer, unassigned) [Compound 5-15, 9-ethyl-6-({(3S)-1-[((2R or 2S)-methylazetidin-1-yl)carbonyl]pyrrolidin-3-yl}oxy)-8-(2-methylpyrimidin-5-yl)-9H-purine] | 6.2 | >10 |
| CCn1c(-c2cnc(C)nc2)nc2c(O[C@H]3CCN(C(=O)N4CCC4C)C3)ncnc21 (single isomer, unassigned) [Compound 5-16, 9-ethyl-6-({(3S)-1-[((2R or 2S)-methylazetidin-1-yl)carbonyl]pyrrolidin-3-yl}oxy)-8-(2-methylpyrimidin-5-yl)-9H-purine] | 16 | >10 |
